Measured values: patent US20230052453A1, “COMPOSITIONS AND METHODS FOR RELIEVING EFFECTS OF ALCOHOL CONSUMPTION” (MOXY DISTRIBUTION, INC., priority 2021, published 2023)

Experiments:
[1] = cited from earlier work
[2] = Blood alcohol content (BAC) of participants after alcoholic drinks; format: in vivo, human; conditions: half dose 30 minutes prior to drinking
Protocol: Participants were also administered a verbal processing test.
The differential in blood alcohol content between the participants receiving DHM and nicotinamide mononucleotide and emoxypine succinate and the participants in control group were substantial as show in Table 1.

[3] = test system: alcohol dehydrogenase (ADH) and acetaldehyde dehydrogenase (ALDH); conditions: cited from earlier work

O=C1c2c(O)cc(O)cc2O[C@H](c2cc(O)c(O)c(O)c2)[C@H]1O [DHM, (2R,3R)-3,5,7-trihydroxy-2-(3,4,5-trihydroxyphenyl)-2,3-dihydrochromen-4-one]
time required to reach peak plasma concentration ([1]; after oral administration at a dose of 20 mg/kg): 2.67 h | bioavailability after oral administration ([1]; rats, oral): 4.02% | MEAN BAC LEVELS ([2]; elapsed time 00 h 15 m, cumulative drinks 1): 0.022% | MEAN BAC LEVELS ([2]; elapsed time 00 h 45 m, cumulative drinks 2): 0.051% | MEAN BAC LEVELS ([2]; elapsed time 01 h 15 m, cumulative drinks 3): 0.062% | MEAN BAC LEVELS ([2]; elapsed time 01 h 45 m, cumulative drinks 4): 0.087% | MEAN BAC LEVELS ([2]; elapsed time 02 h 15 m, cumulative drinks 5): 0.109% | MEAN BAC LEVELS ([2]; elapsed time 02 h 45 m, cumulative drinks 6): 0.131% | alcohol (EtOH) elimination ([3]; by increasing the activities of ADH and ALDH): promotes alcohol (EtOH) elimination | alcohol-induced liver injuries ([3]; in vivo): ameliorates alcohol-induced liver injuries
